Reference: ChEMBL document CHEMBL3885861, “Open TG-GATES”

Species: Rattus norvegicus
Experiment: Open TG-GATES - Regimen: Daily Repeat
Type: toxicity, organism-based, Sprague-Dawley
Set-up: regimen Daily Repeat, gender Male, age 6 weeks
Conditions: in vivo, po, 10 mg/kg, route gavage, dose level Low; for APTT / Bas / Eos / Fbg / Hb / Ht / Lym / MCHC / MCV / Mono / Neu / PT / Plat / RBC / Ret / WBC: tissue Blood; for KIDNEY_L / KIDNEY_R / KIDNEY_TOTAL: tissue Kidney; for LIVER: tissue Liver; for ALP / ALT / AST / BUN / CRE / Ca / Cl / DBIL / GLC / IP / K / LDH / Na / PL / RALB / TBIL / TC / TG / TP / gamma-GTP: tissue Plasma

Compound: CS(=O)(=O)Nc1ccc([N+](=O)[O-])cc1Oc1ccccc1 [NIMESULIDE]
- TERMINAL_BW (72 h, time 3 day): 219.5 g
- APTT (72 h, time 3 day): 16.3 s
- Bas (72 h, time 3 day): 0%
- Eos (72 h, time 3 day): 1.2%
- Fbg (72 h, time 3 day): 208.8 mg/dL
- Hb (72 h, time 3 day): 14 g/dL
- Ht (72 h, time 3 day): 41.3%
- Lym (72 h, time 3 day): 74.8%
- MCHC (72 h, time 3 day): 33.9%
- MCV (72 h, time 3 day): 63.4 fL
- Mono (72 h, time 3 day): 6.8%
- Neu (72 h, time 3 day): 17%
- PT (72 h, time 3 day): 11.4 s
- Plat (72 h, time 3 day): 114.4 x10_4/uL
- RBC (72 h, time 3 day): 651.8 x10_4/ul
- Ret (72 h, time 3 day): 10%
- WBC (72 h, time 3 day): 94 x10_2/uL
- KIDNEY_L (72 h, time 3 day): 1 g
- KIDNEY_R (72 h, time 3 day): 1 g
- KIDNEY_TOTAL (72 h, time 3 day): 1.9 g
- LIVER (72 h, time 3 day): 10.2 g
- ALP (72 h, time 3 day): 1001.2 IU/L
- ALT (72 h, time 3 day): 38.2 IU/L
- AST (72 h, time 3 day): 62.8 IU/L
- BUN (72 h, time 3 day): 18.8 mg/dL
- CRE (72 h, time 3 day): 0.6 mg/dL
- Ca (72 h, time 3 day): 10.8 mg/dL
- Cl (72 h, time 3 day): 103.6 meq/L
- DBIL (72 h, time 3 day): 0.056 mg/dL
- GLC (72 h, time 3 day): 195 mg/dL
- IP (72 h, time 3 day): 7.7 mg/dL
- K (72 h, time 3 day): 4.9 meq/L
- LDH (72 h, time 3 day): 105.6 IU/L
- Na (72 h, time 3 day): 139.4 meq/L
- PL (72 h, time 3 day): 145 mg/dL
- RALB (72 h, time 3 day): 4 g/dL
- TBIL (72 h, time 3 day): 0.3 mg/dL
- TC (72 h, time 3 day): 80 mg/dL
- TG (72 h, time 3 day): 75.8 mg/dL
- TP (72 h, time 3 day): 5.5 g/dL
- gamma-GTP (72 h, time 3 day): 1.2 IU/L
- TERMINAL_BW ([…], time 7 day): 242.4 g
- TERMINAL_BW ([…], time 14 day): 296.6 g
- TERMINAL_BW ([…], time 28 day): 395.2 g
- APTT ([…], time 7 day): 17.2 s
- Bas ([…], time 7 day): 0%
- Eos ([…], time 7 day): 1%
- Fbg ([…], time 7 day): 220.8 mg/dL
- Hb ([…], time 7 day): 14.3 g/dL
- Ht ([…], time 7 day): 41.8%
- Lym ([…], time 7 day): 75.2%
- MCHC ([…], time 7 day): 34.2%
- MCV ([…], time 7 day): 61.7 fL
- Mono ([…], time 7 day): 8.2%
- Neu ([…], time 7 day): 15.4%
- PT ([…], time 7 day): 11.2 s
- Plat ([…], time 7 day): 129.4 x10_4/uL
- RBC ([…], time 7 day): 678.4 x10_4/ul
- Ret ([…], time 7 day): 4.9%
- WBC ([…], time 7 day): 103.5 x10_2/uL
- APTT ([…], time 14 day): 17.9 s
- Bas ([…], time 14 day): 0%
- Eos ([…], time 14 day): 1%
- Fbg ([…], time 14 day): 227.8 mg/dL
- Hb ([…], time 14 day): 14.5 g/dL
- Ht ([…], time 14 day): 42.4%
- Lym ([…], time 14 day): 83.8%
- MCHC ([…], time 14 day): 34.3%
- MCV ([…], time 14 day): 62.7 fL
- Mono ([…], time 14 day): 4.8%
- Neu ([…], time 14 day): 10.8%
- PT ([…], time 14 day): 11.8 s
- Plat ([…], time 14 day): 117.1 x10_4/uL
- RBC ([…], time 14 day): 676.2 x10_4/ul
- Ret ([…], time 14 day): 5.6%
- WBC ([…], time 14 day): 121.2 x10_2/uL
- APTT ([…], time 28 day): 18.6 s
- Bas ([…], time 28 day): 0%
- Eos ([…], time 28 day): 1%
- Fbg ([…], time 28 day): 214.2 mg/dL
- Hb ([…], time 28 day): 15.2 g/dL
- Ht ([…], time 28 day): 45%
- Lym ([…], time 28 day): 80.8%
- MCHC ([…], time 28 day): 33.9%
- MCV ([…], time 28 day): 57.7 fL
- Mono ([…], time 28 day): 6.4%
- Neu ([…], time 28 day): 11.6%
- PT ([…], time 28 day): 11.9 s
- Plat ([…], time 28 day): 117.6 x10_4/uL
- RBC ([…], time 28 day): 782.6 x10_4/ul
- Ret ([…], time 28 day): 2.8%
- WBC ([…], time 28 day): 102.3 x10_2/uL
- KIDNEY_L ([…], time 7 day): 1.1 g
- KIDNEY_R ([…], time 7 day): 1.1 g
- KIDNEY_TOTAL ([…], time 7 day): 2.2 g
- KIDNEY_L ([…], time 14 day): 1.2 g
- KIDNEY_R ([…], time 14 day): 1.2 g
- KIDNEY_TOTAL ([…], time 14 day): 2.4 g
- KIDNEY_L ([…], time 28 day): 1.4 g
- KIDNEY_R ([…], time 28 day): 1.4 g
- KIDNEY_TOTAL ([…], time 28 day): 2.8 g
- LIVER ([…], time 7 day): 11.6 g
- LIVER ([…], time 14 day): 14.2 g
- LIVER ([…], time 28 day): 16.7 g
- ALP ([…], time 7 day): 890.6 IU/L
- ALT ([…], time 7 day): 36.6 IU/L
- AST ([…], time 7 day): 64.4 IU/L
- BUN ([…], time 7 day): 20 mg/dL
- CRE ([…], time 7 day): 0.5 mg/dL
- Ca ([…], time 7 day): 10.5 mg/dL
- Cl ([…], time 7 day): 105.4 meq/L
- DBIL ([…], time 7 day): 0.016 mg/dL
- GLC ([…], time 7 day): 200.8 mg/dL
- IP ([…], time 7 day): 7.6 mg/dL
- K ([…], time 7 day): 4.6 meq/L
- LDH ([…], time 7 day): 97 IU/L
- Na ([…], time 7 day): 140.4 meq/L
- PL ([…], time 7 day): 159.6 mg/dL
- RALB ([…], time 7 day): 4.1 g/dL
- TBIL ([…], time 7 day): 0.3 mg/dL
- TC ([…], time 7 day): 81.4 mg/dL
- TG ([…], time 7 day): 97.8 mg/dL
- TP ([…], time 7 day): 5.9 g/dL
- gamma-GTP ([…], time 7 day): 1.4 IU/L
- ALP ([…], time 14 day): 649.2 IU/L
- ALT ([…], time 14 day): 30.6 IU/L
- AST ([…], time 14 day): 63.6 IU/L
- BUN ([…], time 14 day): 21 mg/dL
- CRE ([…], time 14 day): 0.6 mg/dL
- Ca ([…], time 14 day): 10.6 mg/dL
- Cl ([…], time 14 day): 106.4 meq/L
- DBIL ([…], time 14 day): 0 mg/dL
- GLC ([…], time 14 day): 201.8 mg/dL
- IP ([…], time 14 day): 7.1 mg/dL
- K ([…], time 14 day): 4.6 meq/L
- LDH ([…], time 14 day): 88.6 IU/L
- Na ([…], time 14 day): 141 meq/L
- PL ([…], time 14 day): 161 mg/dL
- RALB ([…], time 14 day): 3.9 g/dL
- TBIL ([…], time 14 day): 0.3 mg/dL
- TC ([…], time 14 day): 78 mg/dL
- TG ([…], time 14 day): 147.6 mg/dL
- TP ([…], time 14 day): 5.9 g/dL
- gamma-GTP ([…], time 14 day): 1.8 IU/L
- ALP ([…], time 28 day): 745.8 IU/L
- ALT ([…], time 28 day): 34.6 IU/L
- AST ([…], time 28 day): 65.2 IU/L
- BUN ([…], time 28 day): 20 mg/dL
- CRE ([…], time 28 day): 0.6 mg/dL
- Ca ([…], time 28 day): 10.6 mg/dL
- Cl ([…], time 28 day): 108.4 meq/L
- DBIL ([…], time 28 day): 0.004 mg/dL
- GLC ([…], time 28 day): 197 mg/dL
- IP ([…], time 28 day): 6.8 mg/dL
- K ([…], time 28 day): 4.6 meq/L
- LDH ([…], time 28 day): 95.2 IU/L
- Na ([…], time 28 day): 144.2 meq/L
- PL ([…], time 28 day): 147.2 mg/dL
- RALB ([…], time 28 day): 4.1 g/dL
- TBIL ([…], time 28 day): 0.3 mg/dL
- TC ([…], time 28 day): 65.8 mg/dL
- TG ([…], time 28 day): 167 mg/dL
- TP ([…], time 28 day): 6.2 g/dL
- gamma-GTP ([…], time 28 day): 1.8 IU/L
